Data reported in patent US20240158446A1, “CYCLIC COMPOUND HAVING SELECTIVE INHIBITORY ACTION ON KRAS OVER HRAS AND NRAS” (CHUGAI SEIYAKU KABUSHIKI KAISHA, priority 2021, published 2024).

Tests used:
[1] = target: GDP-bound KRAS wild-type protein (Homo sapiens, UniProt P01116); assay: Binding to KRAS by surface plasmon resonance (SPR), Single Cycle Kinetics; settings: SPR, Single Cycle Kinetics, GDP-bound KRAS wild-type protein; read-out: KRAS KD
[2] = target: GDP-bound NRAS wild-type protein (Homo sapiens, UniProt P01111); assay: Binding to NRAS by surface plasmon resonance (SPR), Single Cycle Kinetics; settings: SPR, GDP-bound NRAS wild-type protein vs GDP-bound KRAS wild-type protein
[3] = target: GDP-bound HRAS wild-type protein (Homo sapiens, UniProt P01112); assay: Binding to HRAS by surface plasmon resonance (SPR), Single Cycle Kinetics; settings: SPR, GDP-bound HRAS wild-type protein vs GDP-bound KRAS wild-type protein
Sequence of GDP-bound HRAS wild-type protein (P01112 whole entry): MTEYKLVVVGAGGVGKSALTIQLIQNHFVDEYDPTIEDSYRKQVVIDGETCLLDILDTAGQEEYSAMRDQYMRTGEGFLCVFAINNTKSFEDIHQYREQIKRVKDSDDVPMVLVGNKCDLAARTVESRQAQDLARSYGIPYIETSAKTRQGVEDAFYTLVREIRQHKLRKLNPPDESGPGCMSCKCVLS

Sequence of GDP-bound KRAS wild-type protein (P01116 whole entry): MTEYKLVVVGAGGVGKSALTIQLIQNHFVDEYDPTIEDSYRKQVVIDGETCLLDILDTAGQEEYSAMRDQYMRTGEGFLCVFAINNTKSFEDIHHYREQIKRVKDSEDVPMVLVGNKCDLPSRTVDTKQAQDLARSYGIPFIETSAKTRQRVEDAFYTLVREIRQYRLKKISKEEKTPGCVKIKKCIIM
Sequence of GDP-bound NRAS wild-type protein (P01111 whole entry): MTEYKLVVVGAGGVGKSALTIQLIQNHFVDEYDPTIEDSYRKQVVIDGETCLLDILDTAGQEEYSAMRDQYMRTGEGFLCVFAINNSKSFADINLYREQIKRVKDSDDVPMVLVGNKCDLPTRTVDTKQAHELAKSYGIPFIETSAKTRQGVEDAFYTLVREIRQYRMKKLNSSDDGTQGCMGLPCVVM

SMILES	Kd [1]	NRAS/KRAS (ratio of KD value for NRAS to KD value for KRAS) [2]	HRAS/KRAS (ratio of KD value for HRAS to KD value for KRAS) [3]
CCO[C@@H]1C[C@H]2C(=O)NC3(CC(C)(C)C3)C(=O)N(C)[C@@H](C(CC)CC)C(=O)N(C)[C@H](C(=O)N(C)C)CC(=O)N(C)[C@@H](C)C(=O)N[C@@H]([C@@H](C)CC)C(=O)N(C)CC(=O)N(C)[C@H]3C/C=C\CCN(C3=O)[C@@H](Cc3ccc(C)cc3)C(=O)N(C)CC(=O)N[C@@H](CCc3cc(F)c(C(F)(F)F)c(F)c3)C(=O)N2C1 [PP2143]	0.31 nM	A (a compound having 10 or more and less than 20 is denoted as A)	A (a compound having 10 or more and less than 20 is denoted as A)
CCO[C@@H]1C[C@H]2C(=O)NC3(CC(C)(C)C3)C(=O)N(C)[C@@H](C(CC)CC)C(=O)N(C)[C@H](C(=O)N3CCCC3)CC(=O)N(C)[C@@H](COC)C(=O)N[C@@H]([C@@H](C)CC)C(=O)N(C)CC(=O)N(C)[C@H]3C/C=C\CCN(C3=O)[C@@H](Cc3ccc(C)cc3)C(=O)N(C)CC(=O)N[C@@H](CCc3ccc(C(F)(F)F)c(Cl)c3)C(=O)N2C1 [PP2144]	0.48 nM	AA (a compound having 20 or more is denoted as AA)	A (a compound having 10 or more and less than 20 is denoted as A)
CCO[C@@H]1C[C@H]2C(=O)NC3(CC(C)(C)C3)C(=O)N(C)[C@@H](C(CC)CC)C(=O)N(C)[C@H](C(=O)N3CCCC3)CC(=O)N(C)[C@@H](C)C(=O)N[C@@H]([C@@H](C)CC)C(=O)N(C)CC(=O)N(C)[C@H]3C/C=C\CCN(C3=O)[C@@H](Cc3ccc(C)cc3)C(=O)N(C)CC(=O)N[C@@H](CCc3cc(F)c(C(F)(F)F)c(F)c3)C(=O)N2C1 [PP2145]	0.39 nM	A (a compound having 10 or more and less than 20 is denoted as A)	A (a compound having 10 or more and less than 20 is denoted as A)
CCC[C@H]1C(=O)N[C@@H]([C@@H](C)CC)C(=O)N(C)CC(=O)N(C)[C@H]2C/C=C\CCN(C2=O)[C@@H](Cc2ccc(C)cc2)C(=O)N(C)CC(=O)N[C@@H](CCc2ccc(C(F)(F)F)c(Cl)c2)C(=O)N2C[C@H](OCC)C[C@H]2C(=O)NC2(CC(C)(C)C2)C(=O)N(C)[C@@H](C(CC)CC)C(=O)N(C)[C@H](C(=O)N(C)C)CC(=O)N1C [PP2146]	0.33 nM	A (a compound having 10 or more and less than 20 is denoted as A)	A (a compound having 10 or more and less than 20 is denoted as A)
CCO[C@@H]1C[C@H]2C(=O)NC3(CC(C)(C)C3)C(=O)N(C)[C@@H](C(CC)CC)C(=O)N(C)[C@H](C(=O)N(C)C)CC(=O)N(C)[C@@H](CC)C(=O)N[C@@H]([C@@H](C)CC)C(=O)N(C)CC(=O)N(C)[C@H]3C/C=C\CCN(C3=O)[C@@H](Cc3ccc(C)cc3)C(=O)N(C)CC(=O)N[C@@H](CCc3cc(F)c(C(F)(F)F)c(F)c3)C(=O)N2C1 [PP2147]	0.33 nM	A (a compound having 10 or more and less than 20 is denoted as A)	B (a compound having 3 or more and less than 10 is denoted as B)
CCO[C@@H]1C[C@H]2C(=O)NC3(CC(C)(C)C3)C(=O)N(C)[C@@H](C(CC)CC)C(=O)N(C)[C@H](C(=O)N3CCCC3)CC(=O)N(C)[C@@H](CC)C(=O)N[C@@H]([C@@H](C)CC)C(=O)N(C)CC(=O)N(C)[C@H]3C/C=C\CCN(C3=O)[C@@H](Cc3ccc(C)cc3)C(=O)N(C)CC(=O)N[C@@H](CCc3cc(F)c(C(F)(F)F)c(F)c3)C(=O)N2C1 [PP2149]	0.58 nM	A (a compound having 10 or more and less than 20 is denoted as A)	A (a compound having 10 or more and less than 20 is denoted as A)
CCO[C@@H]1C[C@H]2C(=O)NC3(CC(C)(C)C3)C(=O)N(C)[C@@H](C(CC)CC)C(=O)N(C)[C@H](C(=O)N(C)C)CC(=O)N(C)[C@@H](C)C(=O)N[C@@H]([C@@H](C)CC)C(=O)N(C)CC(=O)N(C)[C@H]3C/C=C\CCN(C3=O)[C@@H](Cc3ccc(C)cc3)C(=O)N(C)CC(=O)N[C@@H](CCc3ccc(C(F)(F)F)c(Cl)c3)C(=O)N2C1 [PP2150]	3.8 nM	AA (a compound having 20 or more is denoted as AA)	A (a compound having 10 or more and less than 20 is denoted as A)
CCO[C@@H]1C[C@H]2C(=O)NC3(CC(C)(C)C3)C(=O)N(C)[C@@H](C(CC)CC)C(=O)N(C)[C@H](C(=O)N(C)C)CC(=O)N(C)[C@@H](CC3CCC3)C(=O)N[C@@H]([C@@H](C)CC)C(=O)N(C)CC(=O)N(C)[C@H]3C/C=C\CCN(C3=O)[C@@H](Cc3ccc(C)cc3)C(=O)N(C)CC(=O)N[C@@H](CCc3cc(F)c(C(F)(F)F)c(F)c3)C(=O)N2C1 [PP2151]	0.29 nM	A (a compound having 10 or more and less than 20 is denoted as A)	A (a compound having 10 or more and less than 20 is denoted as A)
CCO[C@@H]1C[C@H]2C(=O)NC3(CC(C)(C)C3)C(=O)N(C)[C@@H](C(CC)CC)C(=O)N(C)[C@H](C(=O)N3CCCC3)CC(=O)N(C)[C@@H](C)C(=O)N[C@@H]([C@@H](C)CC)C(=O)N(C)CC(=O)N(C)[C@H]3C/C=C\CCN(C3=O)[C@@H](Cc3ccc(C)cc3)C(=O)N(C)CC(=O)N[C@@H](CCc3ccc(C(F)(F)F)c(Cl)c3)C(=O)N2C1 [PP2152]	0.67 nM	AA (a compound having 20 or more is denoted as AA)	A (a compound having 10 or more and less than 20 is denoted as A)
CCO[C@@H]1C[C@H]2C(=O)NC3(CC(C)(C)C3)C(=O)N(C)[C@@H](C(CC)CC)C(=O)N(C)[C@H](C(=O)N(C)C)CC(=O)N(C)[C@@H](CC)C(=O)N[C@@H]([C@@H](C)CC)C(=O)N(C)CC(=O)N(C)[C@H]3C/C=C\CCN(C3=O)[C@@H](Cc3ccc(C)cc3)C(=O)N(C)CC(=O)N[C@@H](CCc3ccc(C(F)(F)F)c(Cl)c3)C(=O)N2C1 [PP2154]	0.36 nM	A (a compound having 10 or more and less than 20 is denoted as A)	A (a compound having 10 or more and less than 20 is denoted as A)
CCO[C@@H]1C[C@H]2C(=O)NC3(CC(C)(C)C3)C(=O)N(C)[C@@H](C(CC)CC)C(=O)N(C)[C@H](C(=O)N(C)C)CC(=O)N(C)[C@@H](CC3CC3)C(=O)N[C@@H]([C@@H](C)CC)C(=O)N(C)CC(=O)N(C)[C@H]3C/C=C\CCN(C3=O)[C@@H](Cc3ccc(C(F)(F)F)cc3)C(=O)N(C)CC(=O)N[C@@H](CCc3ccc(C(F)(F)F)c(OC)c3)C(=O)N2C1 [PP2155]	0.37 nM	A (a compound having 10 or more and less than 20 is denoted as A)	B (a compound having 3 or more and less than 10 is denoted as B)
CCO[C@@H]1C[C@H]2C(=O)NC3(CC(C)(C)C3)C(=O)N(C)[C@@H](C(CC)CC)C(=O)N(C)[C@H](C(=O)N(C)C)CC(=O)N(C)[C@@H](CC3CCC3)C(=O)N[C@@H]([C@@H](C)CC)C(=O)N(C)CC(=O)N(C)[C@H]3C/C=C\CCN(C3=O)[C@@H](Cc3ccc(C)cc3)C(=O)N(C)CC(=O)N[C@@H](CCc3ccc(C(F)(F)F)c(Cl)c3)C(=O)N2C1 [PP2156]	0.41 nM	AA (a compound having 20 or more is denoted as AA)	A (a compound having 10 or more and less than 20 is denoted as A)
CCO[C@@H]1C[C@H]2C(=O)NC3(CC(C)(C)C3)C(=O)N(C)[C@@H](C(CC)CC)C(=O)N(C)[C@H](C(=O)N(C)C)CC(=O)N(C)[C@@H](COC)C(=O)N[C@@H]([C@@H](C)CC)C(=O)N(C)CC(=O)N(C)[C@H]3C/C=C\CCN(C3=O)[C@@H](Cc3ccc(C(F)(F)F)cc3)C(=O)N(C)CC(=O)N[C@@H](CCc3ccc(C(F)(F)F)c(OC)c3)C(=O)N2C1 [PP2157]	0.19 nM	A (a compound having 10 or more and less than 20 is denoted as A)	A (a compound having 10 or more and less than 20 is denoted as A)
CCO[C@@H]1C[C@H]2C(=O)NC3(CC(C)(C)C3)C(=O)N(C)[C@@H](C(CC)CC)C(=O)N(C)[C@H](C(=O)N3CCCC3)CC(=O)N(C)[C@@H](COC)C(=O)N[C@@H]([C@@H](C)CC)C(=O)N(C)CC(=O)N(C)[C@H]3C/C=C\CCN(C3=O)[C@@H](Cc3ccc(C(F)(F)F)cc3)C(=O)N(C)CC(=O)N[C@@H](CCc3ccc(C(F)(F)F)c(OC)c3)C(=O)N2C1 [PP2159]	0.33 nM	AA (a compound having 20 or more is denoted as AA)	A (a compound having 10 or more and less than 20 is denoted as A)
CCC[C@H]1C(=O)N[C@@H]([C@@H](C)CC)C(=O)N(C)CC(=O)N(C)[C@H]2C/C=C\CCN(C2=O)[C@@H](Cc2ccc(C(F)(F)F)cc2)C(=O)N(C)CC(=O)N[C@@H](CCc2ccc(C(F)(F)F)c(OC)c2)C(=O)N2C[C@H](OCC)C[C@H]2C(=O)NC2(CC(C)(C)C2)C(=O)N(C)[C@@H](C(CC)CC)C(=O)N(C)[C@H](C(=O)N(C)C)CC(=O)N1C [PP2160]	0.22 nM	A (a compound having 10 or more and less than 20 is denoted as A)	A (a compound having 10 or more and less than 20 is denoted as A)
CCO[C@@H]1C[C@H]2C(=O)NC3(CC(C)(C)C3)C(=O)N(C)[C@@H](C(CC)CC)C(=O)N(C)[C@H](C(=O)N(C)C)CC(=O)N(C)[C@@H](CC(C)C)C(=O)N[C@@H]([C@@H](C)CC)C(=O)N(C)CC(=O)N(C)[C@H]3C/C=C\CCN(C3=O)[C@@H](Cc3ccc(C(F)(F)F)cc3)C(=O)N(C)CC(=O)N[C@@H](CCc3ccc(C(F)(F)F)c(OC)c3)C(=O)N2C1 [PP2161]	0.2 nM	AA (a compound having 20 or more is denoted as AA)	A (a compound having 10 or more and less than 20 is denoted as A)
